Legend:
[1] = biological target: GDP-bound NRAS wild-type protein (Homo sapiens, UniProt P01111); assay: Binding to NRAS by surface plasmon resonance (SPR), Single Cycle Kinetics; conditions: KD ratio NRAS/KRAS, class symbols
[2] = biological target: GDP-bound HRAS wild-type protein (Homo sapiens, UniProt P01112); assay: Binding to HRAS by surface plasmon resonance (SPR), Single Cycle Kinetics; conditions: KD ratio HRAS/KRAS, class symbols
GDP-bound HRAS wild-type protein, sequence (P01112 whole entry): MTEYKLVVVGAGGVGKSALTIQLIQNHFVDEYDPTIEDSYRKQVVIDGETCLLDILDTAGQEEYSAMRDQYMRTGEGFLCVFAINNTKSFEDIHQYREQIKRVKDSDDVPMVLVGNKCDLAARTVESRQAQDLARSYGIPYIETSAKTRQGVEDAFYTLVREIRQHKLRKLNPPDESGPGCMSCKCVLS

GDP-bound NRAS wild-type protein, sequence (P01111 whole entry): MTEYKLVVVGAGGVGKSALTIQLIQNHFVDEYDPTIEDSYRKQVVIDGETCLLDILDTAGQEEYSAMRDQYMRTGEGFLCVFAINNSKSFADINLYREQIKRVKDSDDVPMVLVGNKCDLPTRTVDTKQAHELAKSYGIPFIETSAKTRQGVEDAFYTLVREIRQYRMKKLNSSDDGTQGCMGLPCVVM

Row | SMILES | NRAS/KRAS (ratio of KD value with respect to GDP-bound NRAS wild-type protein to KD value with respect to KRAS) [1] | HRAS/KRAS (ratio of KD value with respect to GDP-bound HRAS wild-type protein to KD value with respect to KRAS) [2]
1 | CCO[C@@H]1C[C@H]2C(=O)NC3(CCC3)C(=O)N(C)[C@@H](C3CCCC3)C(=O)N(C)[C@H](C(=O)N(C)C)CC(=O)N(C)[C@@H](CC3CCCC3)C(=O)N[C@@H]([C@@H](C)CC)C(=O)N(C)CC(=O)N(C)[C@H]3C/C=C\CCN(C3=O)[C@@H](Cc3ccc(C)cc3)C(=O)N(C)CC(=O)N[C@@H](CCc3cc(F)c(CC)c(OC)c3)C(=O)N2C1 [PP2674] | A (a compound having 10 or more and less than 20 is denoted as A) | A (a compound having 10 or more and less than 20 is denoted as A)
2 | CCO[C@@H]1C[C@H]2C(=O)NC3(CCC3)C(=O)N(C)[C@@H](C3CCCC3)C(=O)N(C)[C@H](C(=O)N(C)C)CC(=O)N(C)[C@@H](CC3CCCC3)C(=O)N[C@@H]([C@@H](C)CC)C(=O)N(C)CC(=O)N(C)[C@H]3C/C=C\CCN(C3=O)[C@@H](Cc3ccc(C)cc3)C(=O)N(C)CC(=O)N[C@@H](CCc3cc(C)c(C(F)F)c(C)c3)C(=O)N2C1 [PP2675] | A (a compound having 10 or more and less than 20 is denoted as A) | A (a compound having 10 or more and less than 20 is denoted as A)
3 | CCO[C@@H]1C[C@H]2C(=O)NC3(CCC3)C(=O)N(C)[C@@H](C3CCCC3)C(=O)N(C)[C@H](C(=O)N(C)C)CC(=O)N(C)[C@@H](CC3CCCC3)C(=O)N[C@@H]([C@@H](C)CC)C(=O)N(C)CC(=O)N(C)[C@H]3C/C=C\CCN(C3=O)[C@@H](Cc3ccc(C)cc3)C(=O)N(C)CC(=O)N[C@@H](CCc3cc(C)c(C(F)F)c(F)c3)C(=O)N2C1 [PP2676] | A (a compound having 10 or more and less than 20 is denoted as A) | A (a compound having 10 or more and less than 20 is denoted as A)
4 | CCO[C@@H]1C[C@H]2C(=O)NC3(CCC3)C(=O)N(C)[C@@H](C3CCCC3)C(=O)N(C)[C@H](C(=O)N(C)C)CC(=O)N(C)[C@@H](CC3CCCC3)C(=O)N[C@@H]([C@@H](C)CC)C(=O)N(C)CC(=O)N(C)[C@H]3C/C=C\CCN(C3=O)[C@@H](Cc3ccc(C)cc3)C(=O)N(C)CC(=O)N[C@@H](CCc3cc(C)c(C(F)F)c(Cl)c3)C(=O)N2C1 [PP2677] | A (a compound having 10 or more and less than 20 is denoted as A) | A (a compound having 10 or more and less than 20 is denoted as A)
5 | CCO[C@@H]1C[C@H]2C(=O)NC3(CCC3)C(=O)N(C)[C@@H](C3CCCC3)C(=O)N(C)[C@H](C(=O)N(C)C)CC(=O)N(C)[C@@H](CC3CCCC3)C(=O)N[C@@H]([C@@H](C)CC)C(=O)N(C)CC(=O)N(C)[C@H]3C/C=C\CCN(C3=O)[C@@H](Cc3ccc(C)cc3)C(=O)N(C)CC(=O)N[C@@H](CCc3cc(Cl)c(C(F)(F)F)c(Cl)c3)C(=O)N2C1 [PP2679] | A (a compound having 10 or more and less than 20 is denoted as A) | A (a compound having 10 or more and less than 20 is denoted as A)
6 | CCO[C@@H]1C[C@H]2C(=O)NC3(CCC3)C(=O)N(C)[C@@H](C3CCCC3)C(=O)N(C)[C@H](C(=O)N(C)C)CC(=O)N(C)[C@@H](CC3CCCC3)C(=O)N[C@@H]([C@@H](C)CC)C(=O)N(C)CC(=O)N(C)[C@H]3C/C=C\CCN(C3=O)[C@@H](Cc3ccc(C)cc3)C(=O)N(C)CC(=O)N[C@@H](CCc3ccc(C(F)(F)F)c(C4CC4)c3)C(=O)N2C1 [PP2681] | A (a compound having 10 or more and less than 20 is denoted as A) | A (a compound having 10 or more and less than 20 is denoted as A)
7 | CCO[C@@H]1C[C@H]2C(=O)NC3(CCC3)C(=O)N(C)[C@@H](C3CCCC3)C(=O)N(C)[C@H](C(=O)N(C)C)CC(=O)N(C)[C@@H](CC3CCCC3)C(=O)N[C@@H]([C@@H](C)CC)C(=O)N(C)CC(=O)N(C)[C@H]3C/C=C\CCN(C3=O)[C@@H](Cc3ccc(C)cc3)C(=O)N(C)CC(=O)N[C@@H](CCc3ccc(C4CC4)c(F)c3)C(=O)N2C1 [PP2683] | A (a compound having 10 or more and less than 20 is denoted as A) | A (a compound having 10 or more and less than 20 is denoted as A)
8 | CCO[C@@H]1C[C@H]2C(=O)NC3(CCC3)C(=O)N(C)[C@@H](C3CCCC3)C(=O)N(C)[C@H](C(=O)N(C)C)CC(=O)N(C)[C@@H](CC3CCCC3)C(=O)N[C@@H]([C@@H](C)CC)C(=O)N(C)CC(=O)N(C)[C@H]3C/C=C\CCN(C3=O)[C@@H](Cc3ccc(C)cc3)C(=O)N(C)CC(=O)N[C@@H](CCc3ccc(C4CC4)c(Cl)c3)C(=O)N2C1 [PP2684] | A (a compound having 10 or more and less than 20 is denoted as A) | A (a compound having 10 or more and less than 20 is denoted as A)
9 | CCO[C@@H]1C[C@H]2C(=O)NC3(CCC3)C(=O)N(C)[C@@H](C3CCCC3)C(=O)N(C)[C@H](C(=O)N(C)C)CC(=O)N(C)[C@@H](CC3CCCC3)C(=O)N[C@@H]([C@@H](C)CC)C(=O)N(C)CC(=O)N(C)[C@H]3C/C=C\CCN(C3=O)[C@@H](Cc3ccc(C)cc3)C(=O)N(C)CC(=O)N[C@@H](CCc3ccc(C4CC4)c(C)c3)C(=O)N2C1 [PP2685] | A (a compound having 10 or more and less than 20 is denoted as A) | A (a compound having 10 or more and less than 20 is denoted as A)
10 | CCO[C@@H]1C[C@H]2C(=O)NC3(CCC3)C(=O)N(C)[C@@H](C3CCCC3)C(=O)N(C)[C@H](C(=O)N(C)C)CC(=O)N(C)[C@@H](CC3CCCC3)C(=O)N[C@@H]([C@@H](C)CC)C(=O)N(C)CC(=O)N(C)[C@H]3C/C=C\CCN(C3=O)[C@@H](Cc3ccc(C)cc3)C(=O)N(C)CC(=O)N[C@@H](CCc3ccc(CC)c(F)c3)C(=O)N2C1 [PP2686] | A (a compound having 10 or more and less than 20 is denoted as A) | A (a compound having 10 or more and less than 20 is denoted as A)
11 | CCC[C@H]1C(=O)N[C@@H]([C@@H](C)CC)C(=O)N(C)CC(=O)N(C)[C@H]2C/C=C\CCN(C2=O)[C@@H](Cc2ccc(C)cc2)C(=O)N(C)CC(=O)N[C@@H](CCc2cc(F)c(C(F)(F)F)c(F)c2)C(=O)N2C[C@H](OCC)C[C@H]2C(=O)NC2(CC(C)(C)C2)C(=O)N(C)[C@@H](CC(C)(C)C)C(=O)N(C)[C@H](C(=O)N(C)C)CC(=O)N1C [PP2706] | A (a compound having 10 or more and less than 20 is denoted as A) | B (a compound having 3 or more and less than 10 is denoted as B)
